Laboratory results taken from US11040981B2, “Pyrrolotriazine compounds and methods of inhibiting TAM kinases” (Syros Pharmaceuticals, Inc., priority 2017, dated 2021).

Legend:
TYRO3 = molecular target: T1, TYRO3 (Homo sapiens, UniProt Q06418); assay: TR-FRET kinase activity assay, TYRO3; type: biochemical; settings: ATP at Km, 60 minutes
T1 sequence (Q06418 41-890): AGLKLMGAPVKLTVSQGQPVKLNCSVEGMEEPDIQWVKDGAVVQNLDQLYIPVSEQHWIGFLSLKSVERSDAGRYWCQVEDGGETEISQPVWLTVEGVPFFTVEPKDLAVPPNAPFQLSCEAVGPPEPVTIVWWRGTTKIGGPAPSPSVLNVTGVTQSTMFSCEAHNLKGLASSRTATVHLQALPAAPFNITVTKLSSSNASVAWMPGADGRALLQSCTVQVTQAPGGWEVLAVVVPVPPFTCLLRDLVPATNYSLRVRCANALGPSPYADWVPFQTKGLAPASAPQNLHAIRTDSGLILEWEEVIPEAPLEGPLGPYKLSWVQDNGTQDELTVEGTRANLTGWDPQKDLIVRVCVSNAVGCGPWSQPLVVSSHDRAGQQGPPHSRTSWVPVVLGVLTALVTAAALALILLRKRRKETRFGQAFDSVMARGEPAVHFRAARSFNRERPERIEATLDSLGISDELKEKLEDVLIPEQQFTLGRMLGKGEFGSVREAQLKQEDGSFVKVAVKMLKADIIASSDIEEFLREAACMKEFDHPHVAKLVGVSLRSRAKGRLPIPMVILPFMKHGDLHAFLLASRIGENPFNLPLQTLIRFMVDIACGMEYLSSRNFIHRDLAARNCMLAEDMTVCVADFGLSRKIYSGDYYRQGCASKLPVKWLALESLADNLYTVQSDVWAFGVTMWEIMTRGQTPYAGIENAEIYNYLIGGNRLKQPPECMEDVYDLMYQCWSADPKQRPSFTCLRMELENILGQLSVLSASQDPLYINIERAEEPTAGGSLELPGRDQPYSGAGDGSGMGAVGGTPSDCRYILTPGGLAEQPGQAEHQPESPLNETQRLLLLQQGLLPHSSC
How it was run: (§1)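 Enzyme, fluorescent peptide substrate and compound were mixed, and the reaction was started with ATP at each kinase's Km, in 50 mM HEPES pH 7.5, 10 mM MgCl2, 1 mM EGTA, 0.01% Brij 35, 1 mM DTT at RT. After 60 minutes EDTA quench, Eu-labelled phospho-specific antibody was added for 30 minutes, and IC50 was derived from TR-FRET signal loss.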

MERTK = molecular target: T2, MERTK (Homo sapiens, UniProt Q12866); assay: TR-FRET kinase activity assay, MERTK; type: biochemical; settings: for IC50: TR-FRET activity assay, ATP at Km, 60 minutes, read-out: Mer IC50; for FLT3/Mer ratio (FLT3 IC50/Mer IC50): ratio of Mer to FLT3: FLT3 IC50/Mer IC50
T2 sequence (Q12866 21-999): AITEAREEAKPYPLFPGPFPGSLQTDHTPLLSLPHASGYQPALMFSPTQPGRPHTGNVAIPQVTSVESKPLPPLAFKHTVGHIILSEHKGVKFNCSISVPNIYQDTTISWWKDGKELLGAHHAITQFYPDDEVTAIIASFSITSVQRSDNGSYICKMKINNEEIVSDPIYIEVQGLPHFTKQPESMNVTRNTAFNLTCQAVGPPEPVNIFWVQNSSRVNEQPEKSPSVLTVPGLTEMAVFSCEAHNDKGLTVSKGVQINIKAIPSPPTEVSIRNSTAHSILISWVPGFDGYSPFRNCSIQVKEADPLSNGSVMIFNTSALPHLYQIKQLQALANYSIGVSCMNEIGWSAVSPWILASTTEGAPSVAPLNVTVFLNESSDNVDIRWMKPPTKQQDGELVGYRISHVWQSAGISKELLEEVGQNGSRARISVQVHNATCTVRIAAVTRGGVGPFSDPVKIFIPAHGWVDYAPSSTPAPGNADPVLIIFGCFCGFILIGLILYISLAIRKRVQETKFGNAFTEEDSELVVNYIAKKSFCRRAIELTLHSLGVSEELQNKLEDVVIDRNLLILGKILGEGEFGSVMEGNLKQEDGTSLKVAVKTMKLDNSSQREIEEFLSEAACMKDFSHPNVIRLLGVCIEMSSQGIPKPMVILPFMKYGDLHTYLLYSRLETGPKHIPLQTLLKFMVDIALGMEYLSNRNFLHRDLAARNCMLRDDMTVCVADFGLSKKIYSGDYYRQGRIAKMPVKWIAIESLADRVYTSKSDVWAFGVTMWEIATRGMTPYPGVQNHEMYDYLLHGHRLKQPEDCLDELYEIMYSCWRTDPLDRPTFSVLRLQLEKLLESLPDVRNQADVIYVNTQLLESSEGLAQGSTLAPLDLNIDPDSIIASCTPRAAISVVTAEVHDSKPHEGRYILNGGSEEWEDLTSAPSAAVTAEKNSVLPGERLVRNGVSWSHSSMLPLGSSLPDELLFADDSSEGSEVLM
How it was run: as §1

SMILES	IC50 (TYRO3) [nM]	IC50 (MERTK) [nM]	FLT3/Mer ratio (FLT3 IC50/Mer IC50) (MERTK)
CC(Nc1ncc2c(-c3ccc(CN4CCN(C)CC4)cc3)cc([C@H]3CC[C@H](O)CC3)n2n1)C(F)F (mixture of isomers) [Compound 148]	≤ 100	≤ 100	+++ (“+++” represents a ratio of >100)
CCCCC[C@H](C)Nc1ncc2c(-c3ccc(S(=O)(=O)N4CCOCC4)cc3)cc([C@H]3CC[C@H](O)CC3)n2n1 [Compound 102, (1S,4r)-4-(2-((S)-heptan-2-ylamino)-5-(4-(morpholinosulfonyl)phenyl)pyrrolo[2,1-f][1,2,4]triazin-7-yl)cyclohexanol]	≤ 100	≤ 100	++ (“++” represents a ratio of between 10 and 100)
COC[C@H](C)Nc1ncc2c(-c3ccc(C(=O)N4CCN(C)CC4)cc3)cc([C@H]3CC[C@H](O)CC3)n2n1 [Compound 144]	≤ 100	≤ 100	+++ (“+++” represents a ratio of >100)
CC(CC#N)Nc1ncc2c(-c3ccc(CN4CCN(C)CC4)cc3)cc(C3CCC(O)CC3)n2n1 (stereo not drawn) [Compound 145]	≤ 100	≤ 100	++ (“++” represents a ratio of between 10 and 100)
CNC(=O)c1ccc(-c2cc([C@H]3CC[C@H](O)CC3)n3nc(N[C@@H](C)COC)ncc23)cn1 [Compound 147]	≤ 100	≤ 100	+++ (“+++” represents a ratio of >100)
COCC1(Nc2ncc3c(-c4ccc(CN5CCN(C)CC5)cc4)cc(C4CCC(O)CC4)n3n2)CC1 (stereo not drawn) [Compound 149]	≤ 100	≤ 100	++ (“++” represents a ratio of between 10 and 100)
COC[C@H](C)Nc1ncc2c(-c3ccc(CN4CCN(C(C)=O)CC4)cc3)cc([C@H]3CC[C@H](O)CC3)n2n1 [Compound 150]	≤ 100	≤ 100	++ (“++” represents a ratio of between 10 and 100)
COC[C@H](C)Nc1ncc2c(-c3cnn(C4CCOCC4)c3)cc([C@H]3CC[C@H](O)CC3)n2n1 [Compound 151]	≤ 100	≤ 100	+++ (“+++” represents a ratio of >100)
COC[C@H](C)Nc1ncc2c(-c3cnn(CCN4CCOCC4)c3)cc([C@H]3CC[C@H](O)CC3)n2n1 [Compound 153]	≤ 100	≤ 100	+++ (“+++” represents a ratio of >100)
COC[C@H](C)Nc1ncc2c(-c3ccc(CN4CCN(c5nccc(C)n5)CC4)cc3)cc([C@H]3CC[C@H](O)CC3)n2n1 [Compound 154, (trans)-4-(2-(((S)-1-methoxypropan-2-yl)amino)-5-(4-((4-(4-methylpyrimidin-2-yl)piperazin-1-yl)methyl)phenyl)pyrrolo[2,1-f][1,2,4]triazin-7-yl)cyclohexanol]	≤ 100	≤ 100	+++ (“+++” represents a ratio of >100)
CCOC(=O)Cn1cc(-c2cc([C@H]3CC[C@H](O)CC3)n3nc(N[C@@H](C)COC)ncc23)cn1 [Compound 159]	≤ 100	≤ 100	+++ (“+++” represents a ratio of >100)
COC[C@H](C)Nc1ncc2c(-c3cnn(CC(=O)O)c3)cc([C@H]3CC[C@H](O)CC3)n2n1 [Compound 160]	≤ 100	≤ 100	+++ (“+++” represents a ratio of >100)
COC[C@H](C)Nc1ncc2c(-c3cnn(CC(=O)N4CCOCC4)c3)cc([C@H]3CC[C@H](O)CC3)n2n1 [Compound 162]	≤ 100	≤ 100	+++ (“+++” represents a ratio of >100)
COC[C@H](C)Nc1ncc2c(-c3cnn(CC(C)C)c3)cc([C@H]3CC[C@H](O)CC3)n2n1 [Compound 167]	≤ 100	≤ 100	+++ (“+++” represents a ratio of >100)

Now from value to compound, other results behind:

IC50 (TYRO3) [nM]	IC50 (MERTK) [nM]	SMILES	FLT3/Mer ratio (FLT3 IC50/Mer IC50) (MERTK)
≤ 100	≤ 100	COCC(C)Nc1ncc2c(-c3ccc(C(C)N4CCOCC4)cc3)cc(C3CCC(O)CC3)n2n1 (mixture of isomers) [Compound 180]	++ (“++” represents a ratio of between 10 and 100)
≤ 100	≤ 100	COC[C@H](C)Nc1ncc2c(-c3ccnc(C)c3)cc([C@H]3CC[C@H](O)CC3)n2n1 [Compound 146]	+++ (“+++” represents a ratio of >100)
≤ 100	≤ 100	COC[C@H](C)Nc1ncc2c(-c3cnn(C)c3)cc([C@H]3CC[C@H](O)CC3)n2n1 [Compound 152]	+++ (“+++” represents a ratio of >100)
≤ 100	≤ 100	COC[C@H](C)Nc1ncc2c(-c3ccc(CN4CCN(C)CC4)cc3)cc([C@H]3CC[C@@H](O)CC3)n2n1 [Compound 155]	++ (“++” represents a ratio of between 10 and 100)
≤ 100	≤ 100	COC[C@H](C)Nc1ncc2c(-c3ccc([C@@H](C)N4CCOCC4)cc3)cc([C@H]3CC[C@H](O)CC3)n2n1 [Compound 156]	++ (“++” represents a ratio of between 10 and 100)
≤ 100	≤ 100	COC[C@H](C)Nc1ncc2c(-c3ccc([C@H](C)N4CCOCC4)cc3)cc([C@H]3CC[C@H](O)CC3)n2n1 [Compound 157]	++ (“++” represents a ratio of between 10 and 100)
≤ 100	≤ 100	COCC(C)Nc1ncc2c(-c3cccc(C(C)N4CCCC4)c3)cc(C3CCC(O)CC3)n2n1 (stereo not drawn) [Compound 158]	+++ (“+++” represents a ratio of >100)
≤ 100	≤ 100	COCCC(C)Nc1ncc2c(-c3ccc(CN4CCCC4)cc3)cc(C3CCC(O)CC3)n2n1 (stereo not drawn) [Compound 161]	++ (“++” represents a ratio of between 10 and 100)
≤ 100	≤ 100	COC[C@H](C)Nc1ncc2c(-c3ccc(CN4CCOCC4)cc3)cc([C@H]3CC[C@@H](O)CC3)n2n1 [Compound 163, (cis)-4-(2-(((S)-1-methoxypropan-2-yl)amino)-5-(4-(morpholinomethyl)phenyl)pyrrolo[2,1-f][1,2,4]triazin-7-yl)cyclohexanol]	++ (“++” represents a ratio of between 10 and 100)
≤ 100	≤ 100	COCC(C)Nc1ncc2c(-c3ccc(C(C)N4CCCC4)cc3)cc(C3CCC(O)CC3)n2n1 (stereo not drawn) [Compound 164]	++ (“++” represents a ratio of between 10 and 100)
≤ 100	≤ 100	COC[C@H](C)Nc1ncc2c(-c3ccc([C@H](C)N4CCCC4)cc3)cc([C@H]3CC[C@H](O)CC3)n2n1 [Compound 165]	++ (“++” represents a ratio of between 10 and 100)
≤ 100	≤ 100	COCC(C)Nc1ncc2c(-c3ccc(C(C)N4CCCC4)cc3)cc(C3CCC(O)CC3)n2n1 (stereo not drawn) [Compound 166]	++ (“++” represents a ratio of between 10 and 100)
